Experiments:
[1] = tested on: transplanted tumor of human breast cancer cell MCF-7; assay: MCF-7 transplanted tumor in nude mice
Procedure: (§1) Then cell concentration was adjusted to 1×10^7/ml with matrigel, then each nude mouse was inoculated subcutaneously with 0.2 ml of cells at its right armpit and recorded as the first day of inoculation. When the tumor grows to be greater than or equal to 100 mm^3, the mice were randomly divided into 11 groups with 6 mice in each group: a model group, a cyclophosphamide group, isovaleryl spiramycin I groups with doses of 25, 50 and 100 mg/kg, isovaleryl spiramycin II groups with doses of 25, 50 and 100 mg/kg, and isovaleryl spiramycin III groups with doses of 25, 50 and 100 mg/kg. Each group was continuously administered intragastrically for 30 days with a dose of 20 ml/kg. The mice were sacrificed the next day after drug withdrawal and the indicators were tested. The long diameter and short diameter of the tumor, and the body weight of each mouse were recorded every 3 days from drug administration to nude mouse sacrifice.
(§2) The body weight of the nude mice and the long diameter (a) and short diameter (b) of the transplanted tumor were measured every 3 days, and the tumor volume (v), relative tumor volume (RTV) and relative tumor proliferation rate (T/C) are calculated respectively according to the following formulas, wherein V=a×b^2/2; RTV=V/V0 (V0 is the tumor volume before administration, V is the tumor volume before sacrifice), and T/C (%)=treatment group RTV/model control group RTV×100%.
(§3) Each mouse was weighed and sacrificed. After the tumor was completely stripped off from the body of the mouse, the non-tumor tissues such as blood stains and fat were removed to weigh the tumor and calculate the tumor growth inhibition rate. The average tumor weight of each group of mice is used as an indicator of efficacy. Tumor growth inhibition rate (%)=(1−the average tumor weight of the treatment group/the average tumor weight of the model group)×100%.

[2] = tested on: transplanted tumor of HL60 cells; assay: HL-60 transplanted tumor in nude mice; conditions: for Tumor Volume (mm3) (d30): d 30
Procedure: as §1, with “HL-60 cells in a logarithmic growth phase were taken and subjected to a trypan blue exclusion experiment showing that the cell viability was more than 95%, then the cells were subjected to trypsinization, centrifugation, and supernatant removal. Then” for “Then”, “group:” for “group: a model group, a cyclophosphamide group,”, “the” for “the body”
as §2, §3

[3] = tested on: transplanted tumor of human bladder cancer cell T-24; assay: T-24 transplanted tumor in nude mice; conditions: for Tumor Volume (mm3) (d30): d 30
Procedure: as §1, with “group:” for “group: a model group, a cyclophosphamide group,”
as §2, §3

[4] = MCF-7, 25 mg/kg (low dose) i.g. 30 days
[5] = MCF-7, 50 mg/kg (medium dose) i.g. 30 days
[6] = MCF-7, 100 mg/kg (high dose) i.g. 30 days
[7] = HL-60, high dose (100 mg/kg in method) i.g. 30 days
[8] = HL-60, low dose (25 mg/kg in method) i.g. 30 days
[9] = HL-60, medium dose (50 mg/kg in method) i.g. 30 days
[10] = T-24, high dose (100 mg/kg in method) i.g. 30 days
[11] = T-24, low dose (25 mg/kg in method) i.g. 30 days
[12] = T-24, medium dose (50 mg/kg in method) i.g. 30 days

COC1C(OC(C)=O)CC(=O)OC(C)CC=CC=CC(OC2CCC(N(C)C)C(C)O2)C(C)CC(CC=O)C1OC1OC(C)C(OC2CC(C)(O)C(OC(=O)CC(C)C)C(C)O2)C(N(C)C)C1O (stereo not shown) [Isovaleryl spiramycin II, isovaleryl spiramycin II]
Inhibition Rate (tumor growth inhibition rate) [1, 4]: 20.55%
Relative Tumor Proliferation Rate (T/C) [1, 4]: 79.23%
Relative Tumor Volume (RTV) [1, 4]: 13.87 ± 1.53
Tumor Volume (d 1) [1, 4]: 104.64 ± 10.69 mm3
Tumor Volume (d 30) [1, 4]: 1450.36 ± 218.20 mm3
Tumor Weight [1, 4]: 2.16 ± 0.51 g
Inhibition Rate (tumor growth inhibition rate) [1, 5]: 41.72%
Relative Tumor Proliferation Rate (T/C) [1, 5]: 60.58%
Relative Tumor Volume (RTV) [1, 5]: 10.60 ± 1.10
Tumor Volume (d 1) [1, 5]: 105.81 ± 11.20 mm3
Tumor Volume (d 30) [1, 5]: 1113.42 ± 71.14 mm3
Tumor Weight [1, 5]: 1.58 ± 0.51 g
Inhibition Rate (tumor growth inhibition rate) [1, 6]: 56.81%
Relative Tumor Proliferation Rate (T/C) [1, 6]: 44.45%
Relative Tumor Volume (RTV) [1, 6]: 7.78 ± 1.71
Tumor Volume (d 1) [1, 6]: 119.69 ± 14.63 mm3
Tumor Volume (d 30) [1, 6]: 914.69 ± 130.26 mm3
Tumor Weight [1, 6]: 1.17 ± 0.47 g
Relative Tumor Proliferation Rate (T/C) ([1]; MCF-7, 100 mg/kg (high dose) i.g. 30 days, listed as isovaleryl spiramycin II): 44.44%
tumor volume and relative tumor volume compared with the model group ([1]; MCF-7, low, medium and high doses, P<0.05): significantly lower
mouse weight compared with the model group ([1]; mouse, in vivo): no significant changes
Relative Tumor Proliferation Rate (T/C) [2, 7]: 41.36%
tumor growth inhibition rate [2, 7]: 51.81%
Relative Tumor Proliferation Rate (T/C) [2, 8]: 75.39%
tumor growth inhibition rate [2, 8]: 15.92%
tumor volume and relative tumor volume compared with the model group ([2]; HL-60, low, medium and high doses, P<0.05): significantly lower
Relative Tumor Proliferation Rate (T/C) [2, 9]: 65.18%
tumor growth inhibition rate [2, 9]: 29.48%
Inhibition Rate (%) ([2]; dose 25 mg/kg): 15.92%
Relative Tumor Proliferation Rate (T/C) ([2]; dose 25 mg/kg): 75.39%
Relative Tumor Volume (RTV) ([2]; dose 25 mg/kg): 8.48 ± 1.37
Tumor Weight ([2]; dose 25 mg/kg): 1.90 ± 0.33 g
Tumor Volume (mm3) (d 1) ([2]; dose 25 mg/kg): 189.51 ± 28.58 mm3
Tumor Volume (mm3) (d30) ([2]; dose 25 mg/kg): 1596.76 ± 293.76 mm3
Inhibition Rate (%) ([2]; dose 50 mg/kg): 29.48%
Relative Tumor Proliferation Rate (T/C) ([2]; dose 50 mg/kg): 65.18%
Relative Tumor Volume (RTV) ([2]; dose 50 mg/kg): 7.33 ± 2.36
Tumor Weight ([2]; dose 50 mg/kg): 1.60 ± 0.45 g
Tumor Volume (mm3) (d 1) ([2]; dose 50 mg/kg): 184.06 ± 32.38 mm3
Tumor Volume (mm3) (d30) ([2]; dose 50 mg/kg): 1344.04 ± 466.62 mm3
Inhibition Rate (%) ([2]; dose 100 mg/kg): 51.81%
Relative Tumor Proliferation Rate (T/C) ([2]; dose 100 mg/kg): 41.36%
Relative Tumor Volume (RTV) ([2]; dose 100 mg/kg): 4.65 ± 1.77
Tumor Weight ([2]; dose 100 mg/kg): 1.09 ± 0.34 g
Tumor Volume (mm3) (d 1) ([2]; dose 100 mg/kg): 184.80 ± 33.56 mm3
Tumor Volume (mm3) (d30) ([2]; dose 100 mg/kg): 834.34 ± 308.27 mm3
mouse weight compared with the model group ([2]; mouse, in vivo): no significant changes
Body Weight (g) (d1) ([2]; mouse, in vivo, 25 mg/kg): 20.78 ± 1.31 g
Body Weight (g) (d30) ([2]; mouse, in vivo, 25 mg/kg): 20.59 ± 1.54 g
Body Weight (g) (d1) ([2]; mouse, in vivo, 50 mg/kg): 21.01 ± 1.20 g
Body Weight (g) (d30) ([2]; mouse, in vivo, 50 mg/kg): 20.72 ± 1.29 g
Body Weight (g) (d1) ([2]; mouse, in vivo, 100 mg/kg): 20.65 ± 1.27 g
Body Weight (g) (d30) ([2]; mouse, in vivo, 100 mg/kg): 20.32 ± 1.55 g
Relative Tumor Proliferation Rate (T/C) [3, 10]: 46.70%
tumor growth inhibition rate [3, 10]: 59.25%
Relative Tumor Proliferation Rate (T/C) [3, 11]: 81.39%
tumor growth inhibition rate [3, 11]: 15.57%
tumor volume and relative tumor volume compared with the model group ([3]; T-24, low, medium and high doses, P<0.05): significantly lower
Relative Tumor Proliferation Rate (T/C) [3, 12]: 64.89%
tumor growth inhibition rate [3, 12]: 41.99%
Inhibition Rate (%) ([3]; dose 25 mg/kg): 15.57%
Relative Tumor Proliferation Rate (T/C) ([3]; dose 25 mg/kg): 81.39%
Relative Tumor Volume (RTV) ([3]; dose 25 mg/kg): 10.75 ± 1.34
Tumor Weight ([3]; dose 25 mg/kg): 1.58 ± 0.28 g
Tumor Volume (mm3) (d 1) ([3]; dose 25 mg/kg): 132.64 ± 19.75 mm3
Tumor Volume (mm3) (d30) ([3]; dose 25 mg/kg): 1414.36 ± 188.91 mm3
Inhibition Rate (%) ([3]; dose 50 mg/kg): 41.99%
Relative Tumor Proliferation Rate (T/C) ([3]; dose 50 mg/kg): 64.89%
Relative Tumor Volume (RTV) ([3]; dose 50 mg/kg): 8.57 ± 1.31
Tumor Weight ([3]; dose 50 mg/kg): 1.09 ± 0.42 g
Tumor Volume (mm3) (d 1) ([3]; dose 50 mg/kg): 133.67 ± 5.07 mm3
Tumor Volume (mm3) (d30) ([3]; dose 50 mg/kg): 1142.42 ± 146.91 mm3
Inhibition Rate (%) ([3]; dose 100 mg/kg): 59.25%
Relative Tumor Proliferation Rate (T/C) ([3]; dose 100 mg/kg): 46.70%
Relative Tumor Volume (RTV) ([3]; dose 100 mg/kg): 6.17 ± 1.26
Tumor Weight ([3]; dose 100 mg/kg): 0.76 ± 0.19 g
Tumor Volume (mm3) (d 1) ([3]; dose 100 mg/kg): 133.57 ± 18.08 mm3
Tumor Volume (mm3) (d30) ([3]; dose 100 mg/kg): 809.94 ± 131.43 mm3
mouse weight compared with the model group ([3]; mouse, in vivo): no significant changes
Body Weight (g) (d1) ([3]; mouse, in vivo, 25 mg/kg): 19.91 ± 0.28 g
Body Weight (g) (d30) ([3]; mouse, in vivo, 25 mg/kg): 24.81 ± 2.42 g
Body Weight (g) (d1) ([3]; mouse, in vivo, 50 mg/kg): 19.74 ± 0.82 g
Body Weight (g) (d30) ([3]; mouse, in vivo, 50 mg/kg): 25.84 ± 0.73 g
Body Weight (g) (d1) ([3]; mouse, in vivo, 100 mg/kg): 19.51 ± 0.50 g
Body Weight (g) (d30) ([3]; mouse, in vivo, 100 mg/kg): 25.92 ± 1.35 g

Source: patent publication US20200163984A1, “USE OF ISOVALERYL SPIRAMYCIN I, II AND/OR III IN MANUFACTURING MEDICAMENT FOR TREATING AND/OR PREVENTING TUMOR, AND MEDICAMENT” (SHENYANG FUYANG PHARMACEUTICAL TECHNOLOGY CO., LTD., priority 2017, published 2020)
